The values that follow are results of earlier work, collected in patent publication US9980959B2, “Method and composition for treating rhinitis” (Biolipox AB, priority 2004, dated 2018).

The structures appear in SMILES notation.

The conditions of data set [1]: nasal spray.
The conditions of data set [2]: mist administered to the lung with a nebulizer.

For the compound `O=C(O)COCCN1CCN(C(c2ccccc2)c2ccc(Cl)cc2)CC1` (stereo not shown) [cetirizine, [2-{4-[(4-chlorophenyl)-phenylmethyl]-1-piperazinyl}ethoxy]acetic acid], the “Symptoms and nasal peak flow after an allergen challenge” value in data set [1] was “reduce symptoms and increase nasal peak flow”. Besides, the “Protective effect in exercise-induced asthma” value in data set [2] is reported as “good protective effect”. The “Effect on symptoms in perennial allergic rhinitis” value (nasal spray 0.625, 1.25, 2.5 mg/mL three times a day for two weeks) is on record as “Some effect”. In addition, the “Incidence of side effects (nasal events)” value (nasal spray versus placebo) is “no difference in incidence between the placebo and the cetirizine-treated groups”.
